From patent publication US8410302B2, “Methoxyimino compounds and fungicide composition comprising same” (Kyung Nong Corporation, priority 2007, dated 2013)

Key:
Phytophthora infestans = experiment: whole plant or invertebrate; type: in vivo; details: Phytophthora infestans, in Solanum lycopersicum, read-out: TLB control value (C.V.)
Erysiphae graminis = experiment: Fungicidal activity against barley powdery mildew (BPM) disease, control value; type: in vivo; details: Hordeum vulgare, 168 h, barley powdery mildew, read-out: BPM control value (C.V.)
[1] = tested on: Pyricularia oryzae Carvara KA301; experiment: whole plant or invertebrate; type: in vivo; details: Pyricularia oryzae, read-out: RCB control value (C.V.)
Botrytis cinerae = experiment: Fungicidal activity against cucumber gray mold rot (CGM) disease, control value; type: in vivo; details: Botrytis; 100 ppm, cucumber gray mold rot; read-out: CGM control value (C.V.)
Puccinia recondita = experiment: Fungicidal activity against wheat leaf rust (WLR) disease, control value; type: in vivo; details: wheat leaf rust, read-out: WLR control value (C.V.)
Rhizoctonia solani AG-1 = experiment: Fungicidal activity against rice sheath blight (RSB) disease, control value; details: Rhizoctonia solani, AG1, in Oryza sativa, read-out: RSB control value (C.V.)

`CNC(=O)/C(=N/OC)c1ccccc1COc1cc(C=C(Cl)Cl)ccc1OC` [Example 48, (E)-2-(2-((5-(2,2-dichlorovinyl)-2-methoxyphenoxy)methyl)phenyl)-2-methoxyimino-N-methylacetamide] gave a pest or weed control at 2 ppm (Phytophthora infestans) of 70%, a pest or weed control at 10 ppm (Phytophthora infestans) of 99% and a pest or weed control at 50 ppm (Phytophthora infestans) of 100%. For the same compound, the pest or weed control at 100 ppm (Phytophthora infestans) was 100%, the pest or weed control at 2 ppm (Erysiphae graminis) was 99% and the pest or weed control at 10 ppm (Erysiphae graminis) was 100%. The pest or weed control at 50 ppm (Erysiphae graminis) was 100%, the pest or weed control at 100 ppm (Erysiphae graminis) was 100% and the pest or weed control at 2 ppm [1] was 90%. It also gave a pest or weed control at 10 ppm [1] of 100%, a pest or weed control at 50 ppm [1] of 100% and a pest or weed control at 100 ppm [1] of 100%. For the same compound, the pest or weed control at 100 ppm (Botrytis cinerae) was 50%, the pest or weed control at 2 ppm (Puccinia recondita) was 100% and the pest or weed control at 10 ppm (Puccinia recondita) was 100%. The pest or weed control at 50 ppm (Puccinia recondita) was 100%, the pest or weed control at 100 ppm (Puccinia recondita) was 100% and the pest or weed control at 2 ppm (Rhizoctonia solani AG-1) was 95%. It also gave a pest or weed control at 10 ppm (Rhizoctonia solani AG-1) of 98%, a pest or weed control at 50 ppm (Rhizoctonia solani AG-1) of 100% and a pest or weed control at 100 ppm (Rhizoctonia solani AG-1) of 100%.
Work on `CO/N=C(/C(=O)OC)c1ccccc1COc1c(C)cccc1C=C(Cl)Cl` [Example 49, methyl-(E)-2-(2-((2-(2,2-dichlorovinyl)-6-methylphenoxy)methyl)phenyl)-2-methoxyiminoacetate] yielded a pest or weed control at 2 ppm (Phytophthora infestans) of 97%, a pest or weed control at 10 ppm (Phytophthora infestans) of 99% and a pest or weed control at 50 ppm (Phytophthora infestans) of 100%. It also gave a pest or weed control at 100 ppm (Phytophthora infestans) of 100%, a pest or weed control at 2 ppm (Erysiphae graminis) of 100% and a pest or weed control at 10 ppm (Erysiphae graminis) of 100%. It also gave a pest or weed control at 50 ppm (Erysiphae graminis) of 100%, a pest or weed control at 100 ppm (Erysiphae graminis) of 100% and a pest or weed control at 2 ppm [1] of 93%. It also gave a pest or weed control at 10 ppm [1] of 100%, a pest or weed control at 50 ppm [1] of 100% and a pest or weed control at 100 ppm [1] of 100%. For the same compound, the pest or weed control at 100 ppm (Botrytis cinerae) was 30%, the pest or weed control at 2 ppm (Puccinia recondita) was 100% and the pest or weed control at 10 ppm (Puccinia recondita) was 100%. The pest or weed control at 50 ppm (Puccinia recondita) was 100%, the pest or weed control at 100 ppm (Puccinia recondita) was 100% and the pest or weed control at 2 ppm (Rhizoctonia solani AG-1) was 95%. For the same compound, the pest or weed control at 10 ppm (Rhizoctonia solani AG-1) was 98%, the pest or weed control at 50 ppm (Rhizoctonia solani AG-1) was 100% and the pest or weed control at 100 ppm (Rhizoctonia solani AG-1) was 100%.
`CNC(=O)/C(=N/OC)c1ccccc1COc1c(C)cccc1C=C(Cl)Cl` [Example 50, (E)-2-(2-((2-(2,2-dichlorovinyl)-6-methylphenoxy)methyl)phenyl)-2-methoxyimino-N-methylacetamide] gave a pest or weed control at 2 ppm (Phytophthora infestans) of 90%, a pest or weed control at 10 ppm (Phytophthora infestans) of 99% and a pest or weed control at 50 ppm (Phytophthora infestans) of 100%. For the same compound, the pest or weed control at 100 ppm (Phytophthora infestans) was 100%, the pest or weed control at 2 ppm (Erysiphae graminis) was 100% and the pest or weed control at 10 ppm (Erysiphae graminis) was 100%. For the same compound, the pest or weed control at 50 ppm (Erysiphae graminis) was 100%, the pest or weed control at 100 ppm (Erysiphae graminis) was 100% and the pest or weed control at 2 ppm [1] was 85%. It also gave a pest or weed control at 10 ppm [1] of 98%, a pest or weed control at 50 ppm [1] of 100% and a pest or weed control at 100 ppm [1] of 100%. The pest or weed control at 100 ppm (Botrytis cinerae) was 20%, the pest or weed control at 2 ppm (Puccinia recondita) was 100% and the pest or weed control at 10 ppm (Puccinia recondita) was 100%. For the same compound, the pest or weed control at 50 ppm (Puccinia recondita) was 100%, the pest or weed control at 100 ppm (Puccinia recondita) was 100% and the pest or weed control at 2 ppm (Rhizoctonia solani AG-1) was 95%. It also gave a pest or weed control at 10 ppm (Rhizoctonia solani AG-1) of 98%, a pest or weed control at 50 ppm (Rhizoctonia solani AG-1) of 100% and a pest or weed control at 100 ppm (Rhizoctonia solani AG-1) of 100%.
Compound `CO/N=C(/C(=O)OC)c1ccccc1COc1c(OC)ccc(C=C(Cl)Cl)c1Br` [Example 51, methyl-(E)-2-(2-((2-bromo-3-(2,2-dichlorovinyl)-6-methoxyphenoxy)methyl)phenyl)-2-methoxyiminoacetate] has a pest or weed control at 2 ppm (Phytophthora infestans) of 90%, a pest or weed control at 10 ppm (Phytophthora infestans) of 97% and a pest or weed control at 50 ppm (Phytophthora infestans) of 100%. For the same compound, the pest or weed control at 100 ppm (Phytophthora infestans) was 100%, the pest or weed control at 2 ppm (Erysiphae graminis) was 100% and the pest or weed control at 10 ppm (Erysiphae graminis) was 100%. It also gave a pest or weed control at 50 ppm (Erysiphae graminis) of 100%, a pest or weed control at 100 ppm (Erysiphae graminis) of 100% and a pest or weed control at 2 ppm [1] of 90%. The pest or weed control at 10 ppm [1] was 100%, the pest or weed control at 50 ppm [1] was 100% and the pest or weed control at 100 ppm [1] was 100%. For the same compound, the pest or weed control at 100 ppm (Botrytis cinerae) was 75%, the pest or weed control at 2 ppm (Puccinia recondita) was 100% and the pest or weed control at 10 ppm (Puccinia recondita) was 100%. It also gave a pest or weed control at 50 ppm (Puccinia recondita) of 100%, a pest or weed control at 100 ppm (Puccinia recondita) of 100% and a pest or weed control at 2 ppm (Rhizoctonia solani AG-1) of 90%. The pest or weed control at 10 ppm (Rhizoctonia solani AG-1) was 98%, the pest or weed control at 50 ppm (Rhizoctonia solani AG-1) was 100% and the pest or weed control at 100 ppm (Rhizoctonia solani AG-1) was 100%.
